Results published in the supplement of paper PMC10307832.

Key:
Assay in all cases: relative viability (nuclei count vs DMSO), 5 days (fraction); higher = more cells survive
[1] = compound: Cn1cc(-c2cnn3c(N)c(Br)c([C@@H]4CCCNC4)nc23)cn1 + CC(=O)Nc1cccc(-n2c(=O)n(C3CC3)c(=O)c3c(Nc4ccc(I)cc4F)n(C)c(=O)c(C)c32)c1 [Trametinib] (partner 0.02 µM)
How it was run: (§1)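 Relative viability is defined as nuclei in treated wells over nuclei in vehicle wells. Duplicate plates were run and medians reported. Lung cancer cell lines in 1536-well plates were dosed by pin tool one day after seeding, with one drug or with a fixed anchor-drug dose plus five library-drug doses (not always all listed) in √10 steps, and nuclei were counted after 5 days.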

[2] = compound: Cn1cc(-c2cnn3c(N)c(Br)c([C@@H]4CCCNC4)nc23)cn1 + COc1cccc2cc(-c3nc([C@H]4CC[C@H](C(=O)O)CC4)n4ncnc(N)c34)[nH]c12 [OSI-027] (partner 0.5 µM)
How it was run: as §1

[3] = compound: Cn1cc(-c2cnn3c(N)c(Br)c([C@@H]4CCCNC4)nc23)cn1 + N=C(N)NC(=N)NCCc1ccccc1 [Phenformin] (partner 250 µM)
How it was run: as §1

[4] = compound: Cn1cc(-c2cnn3c(N)c(Br)c([C@@H]4CCCNC4)nc23)cn1 + C[C@@H](Oc1cc(-c2cnn(C3CCNCC3)c2)cnc1N)c1c(Cl)ccc(F)c1Cl [Crizotinib] (partner 1 µM)
How it was run: as §1

| Cell Line | relative viability ([1]; first compound 0.05 µM) | relative viability ([1]; first compound 0.1581 µM) | relative viability ([1]; first compound 0.5 µM) | relative viability ([1]; first compound 1.581 µM) | relative viability ([1]; first compound 5 µM) | relative viability ([2]; first compound 0.05 µM) | relative viability ([2]; first compound 0.1581 µM) | relative viability ([2]; first compound 0.5 µM) | relative viability ([2]; first compound 1.581 µM) | relative viability ([2]; first compound 5 µM) | relative viability ([3]; first compound 0.05 µM) | relative viability ([3]; first compound 0.1581 µM) | relative viability ([3]; first compound 0.5 µM) | relative viability ([3]; first compound 1.581 µM) | relative viability ([3]; first compound 5 µM) | relative viability ([4]; first compound 0.05 µM) | relative viability ([4]; first compound 0.1581 µM) | relative viability ([4]; first compound 0.5 µM) | relative viability ([4]; first compound 1.581 µM) | relative viability ([4]; first compound 5 µM) |
| --- | --- | --- | --- | --- | --- | --- | --- | --- | --- | --- | --- | --- | --- | --- | --- | --- | --- | --- | --- | --- |
| NCI-H322M | 0.553 | 0.495 | 0.519 | 0.491 | 0.391 | 0.46 | 0.356 | 0.466 | 0.354 | 0.242 | 0.681 | 0.595 | 0.717 | 0.474 | 0.254 | 0.874 | 0.962 | 0.884 | 0.785 | 0.576 |
| NCI-H358 | 0.132 | 0.115 | 0.122 | 0.102 | 0.121 | 0.808 | 0.787 | 0.56 | 0.616 | 0.743 | 0.293 | 0.344 | 0.308 | 0.216 | 0.261 | 0.586 | 0.575 | 0.375 | 0.655 | 0.339 |
| NCI-H441 | 0.431 | 0.491 | 0.426 | 0.337 | 0.429 | 0.614 | 0.814 | 0.821 | 0.565 | 0.609 | 0.785 | 1.15 | 0.915 | 0.841 | 0.727 | 0.639 | 1.24 | 0.648 | 0.703 | 0.709 |
| NCI-H460 | 0.152 | 0.209 | 0.0974 | 0.0913 | 0.0615 | 0.725 | 0.765 | 0.515 | 0.203 | 0.0935 | 0.493 | 0.512 | 0.456 | 0.176 | 0.0895 | 1.01 | 1.36 | 1.03 | 0.842 | 0.3 |
| NCI-H520 | 0.685 | 0.642 | 0.591 | 0.699 | 0.542 | 0.214 | 0.215 | 0.269 | 0.265 | 0.288 | 0.52 | 0.587 | 0.596 | 0.461 | 0.348 | 0.743 | 0.821 | 0.694 | 0.601 | 0.589 |
| NCI-H596 | 0.899 | 0.832 | 0.886 | 0.768 | 0.832 | 0.833 | 0.87 | 0.643 | 0.654 | 0.719 | 0.865 | 0.825 | 0.729 | 0.561 | 0.691 | 0.943 | 1.01 | 1.05 | 0.906 | 0.953 |
| NCI-H647 | 0.52 | 0.44 | 0.403 | 0.373 | 0.313 | 0.66 | 0.718 | 0.612 | 0.588 | 0.479 | 0.367 | 0.491 | 0.598 | 0.177 | 0.215 | 1.27 | 1.33 | 0.883 | 0.675 | 0.232 |
| NCI-H650 | 0.913 | 1.01 | 0.957 | 0.901 | 0.82 | 0.571 | 0.503 | 0.54 | 0.476 | 0.485 | 0.426 | 0.413 | 0.447 | 0.486 | 0.399 | 0.778 | 0.708 | 0.706 | 0.627 | 0.606 |
| NCI-H661 | 0.562 | 0.59 | 0.495 | 0.534 | 0.478 | 0.711 | 0.789 | 0.718 | 0.513 | 0.511 | 0.273 | 0.259 | 0.29 | 0.283 | 0.276 | 1.15 | 1.23 | 1.12 | 1.05 | 0.98 |
| NCI-H727 | 0.394 | 0.412 | 0.366 | 0.404 | 0.348 | 0.551 | 0.761 | 0.719 | 0.711 | 0.429 | 0.505 | 0.501 | 0.663 | 0.51 | 0.238 | 0.912 | 0.965 | 0.664 | 0.648 | 0.353 |
| NCI-H838 | 0.501 | 0.521 | 0.496 | 0.505 | 0.471 | 0.386 | 0.416 | 0.371 | 0.367 | 0.338 | 0.483 | 0.66 | 0.552 | 0.324 | 0.554 | 0.925 | 0.987 | 0.783 | 0.785 | 0.561 |
| NCI-H1355 | 0.369 | 0.426 | 0.433 | 0.491 | 0.417 | 0.442 | 0.469 | 0.416 | 0.372 | 0.328 | 0.428 | 0.51 | 0.467 | 0.366 | 0.415 | 0.984 | 1.12 | 1.07 | 1.01 | 0.698 |
| NCI-H1437 | 0.504 | 0.611 | 0.562 | 0.428 | 0.355 | 0.826 | 1.11 | 0.954 | 0.803 | 0.733 | 0.272 | 0.296 | 0.32 | 0.214 | 0.229 | 1.09 | 1.05 | 0.967 | 0.693 | 0.849 |
| NCI-H1650 | 0.559 | 0.551 | 0.487 | 0.405 | 0.428 |  | 0.634 | 0.726 | 0.467 | 0.345 |  | 0.505 | 0.403 | 0.33 | 0.218 | 1.08 | 0.909 | 1.29 | 0.709 | 0.477 |
| NCI-H1651 | 0.885 | 0.925 | 0.88 | 0.857 | 0.461 | 0.653 | 0.787 | 0.618 | 0.453 | 0.242 | 0.331 | 0.336 | 0.318 | 0.223 | 0.173 | 0.902 | 0.985 | 0.806 | 0.821 | 0.569 |
| NCI-H1666 | 0.92 | 0.867 | 0.892 | 0.959 | 0.71 | 0.827 | 0.966 | 0.913 | 0.812 | 0.66 | 0.536 | 0.552 | 0.573 | 0.549 | 0.593 | 1.03 | 0.906 | 1.02 | 1 | 0.869 |
